Target: T1, Vitronectin receptor αVβ3 (Homo sapiens, UniProt P05106+P06756)
T1 construct: expressed in transfected cells; host or cells: 512P5 cells (plasma membrane preparation)
Test: Vitronectin Receptor αVβ3 Binding Assay
Settings: read-out: VnR (IC50μM)

T1 sequence (P06756 31-889 limits assumed): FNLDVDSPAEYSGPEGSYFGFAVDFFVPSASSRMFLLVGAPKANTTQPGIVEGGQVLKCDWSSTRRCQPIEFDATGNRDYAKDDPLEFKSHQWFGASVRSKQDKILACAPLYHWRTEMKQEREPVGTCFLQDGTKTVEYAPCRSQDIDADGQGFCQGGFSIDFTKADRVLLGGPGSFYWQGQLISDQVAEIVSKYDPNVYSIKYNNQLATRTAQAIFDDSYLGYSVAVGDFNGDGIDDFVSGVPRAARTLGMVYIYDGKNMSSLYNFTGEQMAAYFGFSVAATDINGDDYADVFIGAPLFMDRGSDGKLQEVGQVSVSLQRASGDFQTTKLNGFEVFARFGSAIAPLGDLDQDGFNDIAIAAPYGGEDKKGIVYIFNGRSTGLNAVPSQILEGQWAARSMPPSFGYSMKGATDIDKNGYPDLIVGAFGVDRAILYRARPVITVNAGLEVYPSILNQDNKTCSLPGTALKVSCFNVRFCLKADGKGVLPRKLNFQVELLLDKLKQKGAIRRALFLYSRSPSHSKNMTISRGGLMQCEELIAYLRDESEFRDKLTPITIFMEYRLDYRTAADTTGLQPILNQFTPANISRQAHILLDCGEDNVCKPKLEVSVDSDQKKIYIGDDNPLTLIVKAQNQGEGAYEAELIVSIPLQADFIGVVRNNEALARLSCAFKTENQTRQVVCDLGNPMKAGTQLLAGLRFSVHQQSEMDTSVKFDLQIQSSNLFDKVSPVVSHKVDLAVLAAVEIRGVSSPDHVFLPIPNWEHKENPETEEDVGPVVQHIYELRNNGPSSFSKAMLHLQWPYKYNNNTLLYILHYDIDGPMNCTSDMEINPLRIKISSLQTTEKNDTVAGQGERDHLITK
T1 sequence (P06756 891-1048 partner limits assumed): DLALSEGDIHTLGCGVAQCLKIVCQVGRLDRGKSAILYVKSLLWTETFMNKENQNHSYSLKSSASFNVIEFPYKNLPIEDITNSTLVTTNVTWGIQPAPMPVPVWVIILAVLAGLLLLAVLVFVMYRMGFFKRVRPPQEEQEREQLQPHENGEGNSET
T1 sequence (P05106 27-788): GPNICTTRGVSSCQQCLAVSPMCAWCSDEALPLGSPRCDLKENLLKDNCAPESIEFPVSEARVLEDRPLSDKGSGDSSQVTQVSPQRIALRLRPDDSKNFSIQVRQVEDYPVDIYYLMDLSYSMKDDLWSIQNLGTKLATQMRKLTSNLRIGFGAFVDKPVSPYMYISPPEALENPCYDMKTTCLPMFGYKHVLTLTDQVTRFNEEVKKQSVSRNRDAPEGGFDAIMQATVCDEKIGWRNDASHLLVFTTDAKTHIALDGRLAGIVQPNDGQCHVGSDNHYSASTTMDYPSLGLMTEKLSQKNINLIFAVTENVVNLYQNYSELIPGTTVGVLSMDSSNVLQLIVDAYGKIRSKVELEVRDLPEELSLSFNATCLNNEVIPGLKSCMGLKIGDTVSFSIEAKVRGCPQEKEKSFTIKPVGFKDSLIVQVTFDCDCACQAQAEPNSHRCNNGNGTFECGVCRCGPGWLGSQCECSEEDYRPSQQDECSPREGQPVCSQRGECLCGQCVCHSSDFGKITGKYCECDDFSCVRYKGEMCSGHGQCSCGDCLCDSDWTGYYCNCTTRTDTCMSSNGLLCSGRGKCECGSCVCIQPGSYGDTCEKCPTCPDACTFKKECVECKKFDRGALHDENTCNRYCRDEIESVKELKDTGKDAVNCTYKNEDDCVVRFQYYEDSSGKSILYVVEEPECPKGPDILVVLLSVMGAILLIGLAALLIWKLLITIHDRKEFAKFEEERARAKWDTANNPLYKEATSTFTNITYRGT

Structure (SMILES)	IC50 [µM]
COc1ccccc1C(=O)N[C@@H](CNC(=O)c1ccc(OCCNC(=N)N)cc1O)C(=O)O [Example 205, (2S)-3-{[4-(2-{[amino(imino)methyl]amino}ethoxy)-2-hydroxybenzoyl]amino}-2-[(2-methoxybenzoyl)amino]propanoic acid]	> 1
N=C(N)NCCOc1ccc(C(=O)NC[C@H](NC(=O)c2ccc(Cl)cc2)C(=O)O)c(O)c1 [Example 206, (2S)-3-{[4-(2-{[amino(imino)methyl]amino}ethoxy)-2-hydroxybenzoyl]amino}-2-[(4-chlorobenzoyl)amino]propanoic acid]	> 1
Cc1ccc(C(=O)N[C@@H](CNC(=O)c2ccc(OCCNC(=N)N)cc2O)C(=O)O)cc1 [Example 207, (2S)-3-{[4-(2-{[amino(imino)methyl]amino}ethoxy)-2-hydroxybenzoyl]amino}-2-[(4-methylbenzoyl)amino]propanoic acid]	> 1
COc1ccc(C(=O)N[C@@H](CNC(=O)c2ccc(OCCNC(=N)N)cc2O)C(=O)O)cc1 [Example 208, (2S)-3-{[4-(2-{[amino(imino)methyl]amino}ethoxy)-2-hydroxybenzoyl]amino-}-2-[(4-methoxybenzoyl)amino]propanoic acid]	> 1
N=C(N)NCCOc1ccc(C(=O)NC[C@H](NC(=O)c2cccnc2)C(=O)O)c(O)c1 [Example 209, (2S)-3-{[4-(2-{[amino(imino)methyl]amino}ethoxy)-2-hydroxybenzoyl]amino}-2-[(pyridin-3-ylcarbonyl)amino]propanoic acid]	> 1
N=C(N)NCCOc1ccc(C(=O)NC[C@H](NC(=O)c2ccncc2)C(=O)O)c(O)c1 [Example 210, (2S)-3-{[4-(2-{[amino(imino)methyl]amino}ethoxy)-2-hydroxybenzoyl]amino}-2-(isonicotinoylamino)propanoic acid]	> 1
Cc1cc(C(=O)N[C@@H](CNC(=O)c2ccc(OCCNC(=N)N)cc2O)C(=O)O)c(C)o1 [Example 211, (2S)-3-{[4-(2-{[amino(imino)methyl]amino}ethoxy)-2-hydroxybenzoyl]amino}-2-[(2,5-dimethyl-3-furoyl)amino]propanoic acid]	> 1
N=C(N)NCCOc1ccc(C(=O)NC[C@H](NC(=O)c2ccccc2Br)C(=O)O)c(O)c1 [Example 212, (2S)-3-{[4-(2-{[amino(imino)methyl]amino}ethoxy)-2-hydroxybenzoyl]amino-}-2-[(2-bromobenzoyl)amino]propanoic acid]	13.1
N=C(N)NCCOc1ccc(C(=O)NC[C@H](NC(=O)c2ccc(Br)cc2)C(=O)O)c(O)c1 [Example 213, (2S)-3-{[4-(2-{[amino(imino)methyl]amino}ethoxy)-2-hydroxybenzoyl]amino}-2-[(4-bromobenzoyl)amino]propanoic acid]	> 1
Cc1cccc(C(=O)N[C@@H](CNC(=O)c2ccc(OCCNC(=N)N)cc2O)C(=O)O)c1C [Example 214, (2S)-3-{[4-(2-{[amino(imino)methyl]amino}ethoxy)-2-hydroxybenzoyl]amino}-2-[(2,3-dimethylbenzoyl)amino]propanoic acid]	2.31
N=C(N)NCCOc1ccc(C(=O)NC[C@H](NC(=O)c2cccc(Cl)c2)C(=O)O)c(O)c1 [Example 215, (2S)-3-{[4-(2-{[amino(imino)methyl]amino}ethoxy)-2-hydroxybenzoyl]amino}-2-[(3-chlorobenzoyl)amino]propanoic acid]	> 1
CC(C)(C)COC(=O)N[C@@H](CNC(=O)c1ccc(OCCNC(=O)NCc2ccccc2)cc1O)C(=O)O [Example 219, (2S)-3-{[4-(2-{[(benzylamino)carbonyl]amino}ethoxy)-2-hydroxy-benzoyl]amino}-2-{[(neopentyloxy)carbonyl]amino}propanoic acid]	1.8
O=C(NCCOc1ccc(C(=O)NC[C@H](NC(=O)OCc2ccccc2)C(=O)O)c(O)c1)NCc1ccccc1 [Example 220, (2S)-3-{[4-(2-{[(benzylamino)carbonyl]amino}ethoxy)-2-hydroxybenzoyl]amino}-2-{[(benzyloxy)carbonyl]amino}propanoic acid]	8.8
COC(=O)N[C@@H](CNC(=O)c1ccc(OCCNC(=O)NCc2ccccc2)cc1O)C(=O)O [Example 221, (2S)-3-{[4-(2-{[(benzylamino)carbonyl]amino}ethoxy)-2-hydroxybenzoyl]amino}-2-[(methoxycarbonyl)amino]propanoic acid]	22.8
CCOC(=O)N[C@@H](CNC(=O)c1ccc(OCCNC(=O)NCc2ccccc2)cc1O)C(=O)O [Example 222, (2S)-3-{[4-(2-{[(benzylamino)carbonyl]amino}ethoxy)-2-hydroxybenzoyl]amino}-2-[(ethoxycarbonyl)amino]propanoic acid]	20.8
CCCOC(=O)N[C@@H](CNC(=O)c1ccc(OCCNC(=O)NCc2ccccc2)cc1O)C(=O)O [Example 223, (2S)-3-{[4-(2-{[(benzylamino)carbonyl]amino}ethoxy)-2-hydroxybenzoyl]amino}-2-[(propoxycarbonyl)amino]propanoic acid]	5.5

Structure (SMILES)	IC50 [µM]
CC(C)OC(=O)N[C@@H](CNC(=O)c1ccc(OCCNC(=O)NCc2ccccc2)cc1O)C(=O)O [Example 224, (2S)-3-{[4-(2-{[(benzylamino)carbonyl]amino}ethoxy)-2-hydroxybenzoyl]amino}-2-[(isopropoxycarbonyl)amino]propanoic acid]	4.1
C=CCOC(=O)N[C@@H](CNC(=O)c1ccc(OCCNC(=O)NCc2ccccc2)cc1O)C(=O)O [Example 225, (2S)-2-{[(allyloxy)carbonyl]amino}-3-{[4-(2-{[(benzylamino)carbonyl]amino}-ethoxy)-2-hydroxybenzoyl]amino}propanoic acid]	5
C=CCCOC(=O)N[C@@H](CNC(=O)c1ccc(OCCNC(=O)NCc2ccccc2)cc1O)C(=O)O [Example 226, (2S)-3-{[4-(2-{[(benzylamino)carbonyl]amino}ethoxy)-2-hydroxybenzoyl]amino}-2-{[(but-3-enyloxy)carbonyl]amino}propanoic acid]	5.2
C#CCOC(=O)N[C@@H](CNC(=O)c1ccc(OCCNC(=O)NCc2ccccc2)cc1O)C(=O)O [Example 227, (2S)-3-{[4-(2-{[(benzylamino)carbonyl]amino}ethoxy)-2-hydroxybenzoyl]amino}-2-{[(prop-2-ynyloxy)carbonyl]amino}propanoic acid]	5.1
CCCCCCOC(=O)N[C@@H](CNC(=O)c1ccc(OCCNC(=O)NCc2ccccc2)cc1O)C(=O)O [Example 228, (2S)-3-{[4-(2-{[(benzylamino)carbonyl]amino}ethoxy)-2-hydroxybenzoyl]amino}-2-{[(hexyloxy)carbonyl]amino}propanoic acid]	10.2
CCCCCCCCOC(=O)N[C@@H](CNC(=O)c1ccc(OCCNC(=O)NCc2ccccc2)cc1O)C(=O)O [Example 229, (2S)-3-{[4-(2-{[(benzylamino)carbonyl]amino}ethoxy)-2-hydroxybenzoyl]amino}-2-{[(octyloxy)carbonyl]amino}propanoic acid]	17.1
O=C(NCCOc1ccc(C(=O)NC[C@H](NC(=O)OCC(Cl)(Cl)Cl)C(=O)O)c(O)c1)NCc1ccccc1 [Example 230, (2S)-3-{[4-(2-{[(benzylamino)carbonyl]amino}ethoxy)-2-hydroxybenzoyl]amino}-2-{[(2,2,2-trichloroethoxy)carbonyl]amino}propanoic acid]	4
CCCCOC(=O)N[C@@H](CNC(=O)c1ccc(OCCNC(=O)NCc2ccccc2)cc1O)C(=O)O [Example 231, (2S)-3-{[4-(2-{[(benzylamino)carbonyl]amino}ethoxy)-2-hydroxybenzoyl]amino}-2-[(butoxycarbonyl)amino]propanoic acid]	6.7
CC(C)COC(=O)N[C@@H](CNC(=O)c1ccc(OCCNC(=O)NCc2ccccc2)cc1O)C(=O)O [Example 232, (2S)-3-{[4-(2-{[(benzylamino)carbonyl]amino}ethoxy)-2-hydroxybenzoyl]amino}-2-[(isobutoxycarbonyl)amino]propanoic acid]	3.7
O=C(NCCOc1ccc(C(=O)NC[C@H](NC(=O)OCc2ccccc2)C(=O)O)c(O)c1)NCc1cccnc1 [Example 233]	3.3
COC(=O)N[C@@H](CNC(=O)c1ccc(OCCNC(=O)NCc2cccnc2)cc1O)C(=O)O [Example 234, (2S)-3-({2-hydroxy-4-[2-({[(pyridin-3-ylmethyl)amino]carbonyl}-amino)ethoxy]-benzoyl}amino)-2-[(methoxycarbonyl)amino]propanoic acid]	8.7
CCOC(=O)N[C@@H](CNC(=O)c1ccc(OCCNC(=O)NCc2cccnc2)cc1O)C(=O)O [Example 235, (2S)-2-[(ethoxycarbonyl)amino]-3-({2-hydroxy-4-[2-({[(pyridin-3-ylmethyl)amino]-carbonyl}amino)ethoxy]benzoyl}amino)propanoic acid]	3
CCCOC(=O)N[C@@H](CNC(=O)c1ccc(OCCNC(=O)NCc2cccnc2)cc1O)C(=O)O [Example 236]	1.9
CC(C)OC(=O)N[C@@H](CNC(=O)c1ccc(OCCNC(=O)NCc2cccnc2)cc1O)C(=O)O [Example 237, (2S)-3-({2-hydroxy-4-[2-({[(pyridin-3-ylmethyl)amino]carbonyl}-amino)ethoxy]-benzoyl}amino)-2-[(isopropoxycarbonyl)amino]propanoic acid]	2.7
C=CCCOC(=O)N[C@@H](CNC(=O)c1ccc(OCCNC(=O)NCc2cccnc2)cc1O)C(=O)O [Example 239, (2S)-2-{[(but-3-enyloxy)carbonyl]amino}-3-({2-hydroxy-4-[2-({[(pyridin-3-ylmethyl)amino]carbonyl}amino)ethoxy]benzoyl}amino)propanoic acid]	2.1
CCCCCCOC(=O)N[C@@H](CNC(=O)c1ccc(OCCNC(=O)NCc2cccnc2)cc1O)C(=O)O [Example 241, (2S)-2-{[(hexyloxy)carbonyl]amino}-3-({2-hydroxy-4-[2-({[(pyridin-3-ylmethyl)-amino]carbonyl}amino)ethoxy]benzoyl}amino)propanoic acid]	4.1

Source: US20030186967A1, “Acylresorcinol derivatives are selective vitronectin receptor inhibitors” (American Home Products Corporation, priority 1998, published 2003)
